Results published in ChEMBL document CHEMBL4002627, “Quinolidene based monocarbonyl curcumin analogues as promising antimycobacterial agents: Synthesis and molecular docking study” (Bioorg Med Chem Lett, 2017).
In brackets after ≈: the same amount, converted by molar mass.

Key:
Format in all cases: functional
[1] = tested on: Mycobacterium tuberculosis; test: Antimycobacterial activity against dormant state of Mycobacterium bovis BCG by two fold dilution method; details: variant bovis BCG
[2] = tested on: Mycobacterium tuberculosis; test: Antimycobacterial activity against dormant state of Mycobacterium bovis BCG assessed as growth inhibition at 30 ug/ml after 12 days by nitrate reductase assay relative to control; details: variant bovis BCG, 288 h, read-out: GI
[3] = tested on: Mycobacterium tuberculosis; test: Antimycobacterial activity against dormant state of Mycobacterium bovis BCG assessed as growth inhibition at 10 ug/ml after 12 days by nitrate reductase assay relative to control; details: variant bovis BCG, 288 h, read-out: GI
[4] = tested on: Mycobacterium tuberculosis; test: Antimycobacterial activity against dormant state of Mycobacterium bovis BCG assessed as growth inhibition at 3 ug/ml after 12 days by nitrate reductase assay relative to control; details: variant bovis BCG, 288 h, read-out: GI

Structure (SMILES) | MIC50 [1] [µg/mL] | MIC90 [1] [µg/mL] | inhibition of growth at 30 µg/mL [2] [%] | inhibition of growth at 10 µg/mL [3] [%] | inhibition of growth at 3 µg/mL [4] [%]
O=C1/C(=C/c2cc3ccccc3nc2Cl)CNC/C1=C\c1cc2ccccc2nc1Cl | 9.6 (≈ 21.5 µM) | > 30 | 79.7 | 50.6 | 38.3
COc1ccc2cc(/C=C3\CNC/C(=C\c4cc5ccc(OC)cc5nc4Cl)C3=O)c(Cl)nc2c1 | 1.4 (≈ 2.76 µM) | 2.7 (≈ 5.33 µM) | 96.8 | 98.3 | 94.6
CN1C/C(=C\c2cc3cc(Cl)ccc3nc2Cl)C(=O)/C(=C/c2cc3cc(Cl)ccc3nc2Cl)C1 | 3.3 (≈ 6.24 µM) | 21.5 (≈ 40.6 µM) | 96.2 | 82.1 | 49
Cc1ccc2cc(/C=C3\CNC/C(=C\c4cc5ccc(C)cc5nc4Cl)C3=O)c(Cl)nc2c1 | 12.9 (≈ 27.2 µM) | > 30 | 89.8 | 43.4 | 33.8
O=C1/C(=C/c2cc3cc(Cl)ccc3nc2Cl)CNC/C1=C\c1cc2cc(Cl)ccc2nc1Cl | 19.7 (≈ 38.2 µM) | > 30 | 77.6 | 24.6 | 37.5
Cc1cccc2cc(/C=C3\CN(C)C/C(=C\c4cc5cccc(C)c5nc4Cl)C3=O)c(Cl)nc12 | 20.8 (≈ 42.6 µM) | > 30 | 62.4 | 35.9 | 19.1
COc1ccc2cc(/C=C3\CN(C)C/C(=C\c4cc5ccc(OC)cc5nc4Cl)C3=O)c(Cl)nc2c1 | 5.8 (≈ 11.1 µM) | 9.4 (≈ 18.1 µM) | 92.4 | 95.6 | 22.3
Cc1ccc2nc(Cl)c(/C=C3\CN(C)C/C(=C\c4cc5cc(C)ccc5nc4Cl)C3=O)cc2c1 | > 30 | > 30 | 20.2 | 1 | -5.7
Cc1cccc2cc(/C=C3\CNC/C(=C\c4cc5cccc(C)c5nc4Cl)C3=O)c(Cl)nc12 | 2.5 (≈ 5.27 µM) | > 30 | 77.1 | 66.7 | 52.1
CN1C/C(=C\c2cc3cc(F)ccc3nc2Cl)C(=O)/C(=C/c2cc3cc(F)ccc3nc2Cl)C1 | 25.6 (≈ 51.6 µM) | > 30 | 63.8 | 1 | 17.6
COc1ccc2nc(Cl)c(/C=C3\CNC/C(=C\c4cc5cc(OC)ccc5nc4Cl)C3=O)cc2c1 | 11 (≈ 21.7 µM) | 27.2 (≈ 53.7 µM) | 97.2 | 48.4 | 28
Cc1ccc2nc(Cl)c(/C=C3\CNC/C(=C\c4cc5cc(C)ccc5nc4Cl)C3=O)cc2c1 | > 30 | > 30 | 45.9 | 38.5 | 35.3
CN1C/C(=C\c2cc3ccccc3nc2Cl)C(=O)/C(=C/c2cc3ccccc3nc2Cl)C1 | 6 (≈ 13 µM) | 7.3 (≈ 15.9 µM) | 97.5 | 61.7 | 31.7
O=C1/C(=C/c2cc3cc(F)ccc3nc2Cl)CNC/C1=C\c1cc2cc(F)ccc2nc1Cl | 2.1 (≈ 4.35 µM) | 9.2 (≈ 19.1 µM) | 96.1 | 93.4 | 61.9
Cc1ccc2cc(/C=C3\CN(C)C/C(=C\c4cc5ccc(C)cc5nc4Cl)C3=O)c(Cl)nc2c1 | 5.8 (≈ 11.9 µM) | 15.4 (≈ 31.5 µM) | 90.4 | 89.4 | 23.2
COc1ccc2nc(Cl)c(/C=C3\CN(C)C/C(=C\c4cc5cc(OC)ccc5nc4Cl)C3=O)cc2c1 | > 30 | > 30 | 31.9 | 13.3 | 22.9
CO[C@H]1/C=C/O[C@@]2(C)Oc3c(C)c(O)c4c(O)c(c(/C=N/N5CCN(C)CC5)c(O)c4c3C2=O)NC(=O)/C(C)=C\C=C\[C@H](C)[C@H](O)[C@@H](C)[C@@H](O)[C@@H](C)[C@H](OC(C)=O)[C@@H]1C [RIFAMPIN] | 0.0043 (≈ 0.00523 µM) | 0.0173 (≈ 0.021 µM) |  |  | 
